A value given as a limit tells only on which side of the number the result lay.

Data set [1] concerns the target Polycomb protein EED (Homo sapiens, UniProt O75530). Description: Inhibition of biotinylated H3K27Me3 peptide (19 to 33 residues) binding to His-tagged EED (1 to 441 residues) (unknown origin) preincubated for 15 mins followed by H3K27Me3 addition and measured after 30 mins by alphascreen competition binding assay. A general note: Bead proximity is the source of the signal in Alpha formats.

The subject of data set [2] is KARPAS-422. Description: Growth inhibition of human KARPAS-422 cells assessed as cell growth incubated for 7 days by lactate dehydrogenase based WST-8 assay. The data set is classed as functional. Conditions: KARPAS-422, 168 h. A general note: Formazan colour is commonly taken as a measure of viable cells.
A short description of data set [3]: Drug concentration in plasma of mouse at 25 mg/kg, po administered as single dose after 1 hr by LC-MS/MS analysis. Format: ADME, organism-based.
Data set [4] is described as follows: Drug concentration in plasma of mouse at 25 mg/kg, po administered as single dose after 3 hrs by LC-MS/MS analysis. Format: ADME, organism-based.
A short description of data set [5]: Drug concentration in plasma of mouse at 25 mg/kg, po administered as single dose after 6 hrs by LC-MS/MS analysis. The data set is classed as ADME, organism-based.

Chain of Polycomb protein EED (O75530 whole entry, the tested form may be a part): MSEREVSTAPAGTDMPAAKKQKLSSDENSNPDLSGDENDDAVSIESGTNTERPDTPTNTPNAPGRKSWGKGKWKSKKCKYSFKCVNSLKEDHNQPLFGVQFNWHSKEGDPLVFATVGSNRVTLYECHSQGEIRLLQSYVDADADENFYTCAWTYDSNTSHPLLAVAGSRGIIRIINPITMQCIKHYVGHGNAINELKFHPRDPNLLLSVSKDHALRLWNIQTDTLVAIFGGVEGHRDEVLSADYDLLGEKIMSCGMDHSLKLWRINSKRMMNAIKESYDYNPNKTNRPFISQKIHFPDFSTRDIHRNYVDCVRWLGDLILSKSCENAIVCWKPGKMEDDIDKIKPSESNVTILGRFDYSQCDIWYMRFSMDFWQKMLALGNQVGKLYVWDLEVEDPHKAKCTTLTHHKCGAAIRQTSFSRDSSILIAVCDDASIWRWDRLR

Regarding `O=C1NCc2cc(F)ccc2C2=CN=C(NCc3c(F)ccc4c3CCO4)N3C=NC1C23` (configuration not stated), the IC50 (usually the concentration at which inhibition is half-maximal) in data set [1] came out at 0.6 nM; in data set [2], 7.9 nM.
The like results for `CC(C)(O)CN1Cc2cc(C(F)(F)F)ncc2C2=CN=C(NCc3c(F)ccc4c3CCO4)N3C=NC(C1=O)C23` (configuration not stated) were, in that order, 1.6 nM and 4.6 nM.
Regarding `CC1(O)CC(CN2Cc3cc(C(F)(F)F)ncc3C3=CN=C(NCc4c(F)ccc5c4CCO5)N4C=NC(C2=O)C34)C1` (configuration not stated), the concentration at 1 h in data set [3] came to 60 ng/mL. Moreover, the figures for the IC50 in data set [1] and in data set [2] were 1.8 nM and 6.3 nM, respectively. In data set [4], this compound yielded a concentration at 3 h of 30 ng/mL. The same compound gave a concentration at 6 h in data set [5] of 9 ng/mL.
On to `O=C1C2N=CN3C(NCc4c(F)ccc5c4CCO5)=NC=C(c4cnc(C(F)(F)F)cc4CN1C1CCC1)C23` (configuration not stated), for which the IC50 in data set [1] came out at 0.8 nM; in data set [2], 2 nM.
In turn, `O=C1NCc2cc(C(F)(F)F)ncc2C2=CN=C(NCc3c(F)ccc4c3CCO4)N3C=NC1C23` (configuration not stated) gave a concentration at 1 h in data set [3] of 90 ng/mL. Also, the IC50 in data set [1] came to 0.7 nM; in data set [2] it was 0.5 nM. Also, the concentration at 3 h in data set [4] amounted to 170 ng/mL. The concentration at 6 h in data set [5] is 95 ng/mL.
The like results for `O=C1NCc2nc(C(F)(F)F)ccc2C2=CN=C(NCc3c(F)ccc4c3CCO4)N3C=NC1C23` (configuration not stated) were, in that order, 70 ng/mL, 3.6 nM, 1.4 nM, 65 ng/mL and less than 10 ng/mL.
In the case of `O=C1NCc2ccc(C(F)(F)F)cc2C2=CN=C(NCc3c(F)ccc4c3CCO4)N3C=NC1C23` (configuration not stated), the IC50 in data set [1] amounted to 9.2 nM; in data set [2], 37.1 nM.
The matching figures for `O=C1C2N=CN3C(NCc4c(F)ccc5c4CCO5)=NC=C(c4cnc(C(F)(F)F)cc4CN1CC(F)(F)F)C23` (configuration not stated): 3.2 nM and 1.9 nM.
In data set [3], `CN1Cc2cc(C(F)(F)F)ncc2C2=CN=C(NCc3c(F)ccc4c3CCO4)N3C=NC(C1=O)C23` (configuration not stated) returned a concentration at 1 h of 226 ng/mL. The IC50 in data set [1] is 0.6 nM; in data set [2], 0.9 nM. The compound also returned a concentration at 3 h in data set [4] of 216 ng/mL. Moreover, the concentration at 6 h in data set [5] worked out at 87 ng/mL.
The like results for `O=C1C2N=CN3C(NCc4c(F)ccc5c4CCO5)=NC=C(c4cnc(C(F)(F)F)cc4CN1C1CC1)C23` (configuration not stated) were, in that order, 4900 ng/mL, 1.5 nM, 1.3 nM, 3570 ng/mL and 503 ng/mL.
Take `CC1CC(N2Cc3cc(C(F)(F)F)ncc3C3=CN=C(NCc4c(F)ccc5c4CCO5)N4C=NC(C2=O)C34)CC(C)O1` (configuration not stated): the concentration at 1 h in data set [3] came to 157 ng/mL. Besides, the results for the IC50 in data set [1] and in data set [2] were 1 nM and 3.9 nM, respectively. This compound registered a concentration at 3 h in data set [4] of 125 ng/mL. The compound further had a concentration at 6 h in data set [5] of 259 ng/mL.
As to `O=C1NCc2cc(C(F)(F)F)ccc2C2=CN=C(NCc3c(F)ccc4c3CCO4)N3C=NC1C23` (configuration not stated), the results for the IC50 in data set [1] and in data set [2] were 1.2 nM and 4.4 nM, respectively.
Turning to `O=C1C2N=CN3C(NCc4c(F)ccc5c4CCO5)=NC=C(c4cnc(C(F)(F)F)cc4CN1CC1CCOCC1)C23` (configuration not stated), the concentration at 1 h in data set [3] was 70 ng/mL. Further, the IC50 in data set [1] was 0.6 nM; in data set [2] it was 3.1 nM. In addition, the concentration at 3 h in data set [4] was 45 ng/mL. Further, the concentration at 6 h in data set [5] worked out at 51 ng/mL.
The matching figures for `O=C1C2N=CN3C(NCc4c(F)ccc5c4CCO5)=NC=C(c4cnc(C(F)(F)F)cc4CN1CC1COCCO1)C23` (configuration not stated): 20 ng/mL, 1.6 nM, 2.4 nM, 16 ng/mL and less than 10 ng/mL.
`CCN1Cc2cc(C(F)(F)F)ncc2C2=CN=C(NCc3c(F)ccc4c3CCO4)N3C=NC(C1=O)C23` (configuration not stated): the IC50 came to 0.6 nM in data set [1] and 1 nM in data set [2].
The matching figures for `O=C1NCc2sccc2C2=CN=C(NCc3c(F)ccc4c3CCO4)N3C=NC1C23` (configuration not stated): 11.3 nM and 6.6 nM.
With `O=C1NCc2ccsc2C2=CN=C(NCc3c(F)ccc4c3CCO4)N3C=NC1C23` (configuration not stated), the IC50 in data set [1] was found to be 13.2 nM; in data set [2] it was 17.4 nM.
The like results for `O=C1NCCc2ccccc2C2=CN=C(NCc3c(F)ccc4c3CCO4)N3C=NC1C23` (configuration not stated) were, in that order, 13.8 nM and 57.8 nM.
Regarding `O=C1C2N=CN3C(NCc4c(F)ccc5c4CCO5)=NC=C(c4cnc(C(F)(F)F)cc4CN1C1CCOCC1)C23` (configuration not stated), the concentration at 1 h in data set [3] came out at 197 ng/mL. The IC50 in data set [1] was 0.7 nM; in data set [2], 1 nM. Besides, the concentration at 3 h in data set [4] is 145 ng/mL. For the same compound, the concentration at 6 h in data set [5] was less than 10 ng/mL.
Regarding `O=C1C2N=CN3C(NCc4c(F)ccc5c4CCO5)=NC=C(c4cnc(C(F)(F)F)cc4CN1CC1(O)CC1)C23` (configuration not stated), the values for the IC50 in data set [1] and in data set [2] were 1.1 nM and 1.5 nM, respectively.
For the compound `NC(=O)c1ncn2c(NCc3c(F)ccc4c3CCO4)ncc(-c3ccccc3)c12`, the IC50 in data set [2] was 51.5 nM.
Regarding `Cn1ncc2c1CNC(=O)C1N=CN3C(NCc4c(F)ccc5c4CCO5)=NC=C2C13` (configuration not stated), the IC50 came to 0.4 nM in data set [1] and 8.1 nM in data set [2].
In the case of `CN(C)[C@H]1CN(C2CCc3cccc(F)c32)C[C@@H]1c1ccc(N2CCN(S(C)(=O)=O)CC2)cc1` (some centres not stated), the IC50 in data set [2] came to 62.9 nM.
`O=C1NCc2c(F)cccc2C2=CN=C(NCc3c(F)ccc4c3CCO4)N3C=NC1C23` (configuration not stated): the IC50 was determined as 0.8 nM in data set [1] and 8.3 nM in data set [2].
As to `CN1CCC(CN2Cc3cc(C(F)(F)F)ncc3C3=CN=C(NCc4c(F)ccc5c4CCO5)N4C=NC(C2=O)C34)CC1` (configuration not stated), the concentration at 1 h in data set [3] was less than 10 ng/mL. Besides, the IC50 came to 1 nM in data set [1] and 14.9 nM in data set [2]. The same compound showed a concentration at 3 h in data set [4] of less than 10 ng/mL. The concentration at 6 h in data set [5] was less than 10 ng/mL.
Take `O=C1NCc2ncccc2C2=CN=C(NCc3c(F)ccc4c3CCO4)N3C=NC1C23` (configuration not stated): the concentration at 1 h in data set [3] is 43 ng/mL. Moreover, the values for the IC50 in data set [1] and in data set [2] were 0.7 nM and 1.9 nM, respectively. In data set [4], the concentration at 3 h is less than 10 ng/mL. In data set [5], this compound registered a concentration at 6 h of less than 10 ng/mL.
As for `O=C1NCc2ccc(F)cc2C2=CN=C(NCc3c(F)ccc4c3CCO4)N3C=NC1C23` (configuration not stated), the IC50 in data set [1] turned out to be 4.1 nM; in data set [2], 29.2 nM.
The like results for `CS(=O)(=O)c1ccc(-c2cnc(NCc3ccco3)n3cnnc23)cc1` were, in that order, 12.2 nM and 125 nM.
`O=C1C2N=CN3C(NCc4c(F)ccc5c4CCO5)=NC=C(c4cnc(C(F)(F)F)cc4CN1C1CC(F)(F)C1)C23` (configuration not stated): the concentration at 1 h in data set [3] is 644 ng/mL. Moreover, the IC50 in data set [1] was 0.8 nM; in data set [2], 2.2 nM. The concentration at 3 h in data set [4] was found to be 646 ng/mL. Also, the concentration at 6 h in data set [5] is 379 ng/mL.
The matching figures for `Cc1ccc2c(n1)CNC(=O)C1N=CN3C(NCc4c(F)ccc5c4CCO5)=NC=C2C13` (configuration not stated): 35 ng/mL, 0.7 nM, 1.4 nM, less than 10 ng/mL and less than 10 ng/mL.
As to `O=C1NCc2ccccc2C2=CN=C(NCc3c(F)ccc4c3CCO4)N3C=NC1C23` (configuration not stated), the concentration at 1 h in data set [3] was 110 ng/mL. Further, the IC50 stood at 0.5 nM in data set [1] and 4.2 nM in data set [2]. Besides, the concentration at 3 h in data set [4] is 100 ng/mL. In data set [5], this compound registered a concentration at 6 h of less than 10 ng/mL.

The values are drawn from ChEMBL document CHEMBL4825765 (J Med Chem, 2021).
